Assays:
Assay type in all cases: cell-based
[1] = test system: non-synovial control cancer cell lines (RD, HCT116, and Calu6); experiment: Crystal violet cell growth, non-synovial control lines, Example 3; conditions: treated daily, stained by day 14
Protocol: (§1) Procedure: Cells were seeded into 6-well or 12-well plates and were treated daily with a BRD9 degrader (Compound 1), a bromo-domain BRD9 binder (Compound 2), E3 ligase binder (lenalidomide), DMSO, or staurosporin (positive control for cell killing), at indicated concentrations. The number of cells was optimized for each cell line. Growth media was refreshed every 5 days. By day 14, medium was removed, cells were washed with PBS, and stained using 500 μL of 0.005% (w/v) crystal violet solution in 25% (v/v) methanol for at least 1 hour at room temperature. Subsequently plates were scanned on an Odyssey CLx Imaging system.

[2] = test system: synovial sarcoma cell lines (SYO1, Yamato, HS-SY-II, and ASKA); experiment: Cell growth (confluency, crystal violet, colony imaging), synovial sarcoma cell lines, Example 2; conditions: 1 μM or indicated concentrations, day 11 to 23
Protocol: (§2) Cells were treated with DMSO or the BRD9 degrader, Compound 1, at indicated concentrations, and proliferation was monitored from day 7 to day 14 by measuring confluency overtime using an IncuCyte live cell analysis system (FIG. 5). Growth medium and compounds were refreshed every 3-4 days.
(§3) Cells were seeded into 12-well plates and treated with DMSO, 1 μM BRD9 inhibitor, Compound 2 (also known as BI-7273, see Martin et al, J Med Chem. 59(10):4462-4475 (2016); see structure of compound 2 below), or 1 μM BRD9 degrader, Compound 1.
(§4) The number of cells was optimized for each cell line. Growth medium and compounds were refreshed every 3-5 days. SYO1, Yamato, A549, 293T and HS-SY-II cells were fixed and stained at day 11. ASKA cells were fixed and stained at day 23. Staining was done by incubation with crystal violet solution (0.5 g Crystal Violet, 27 ml 37% Formaldehyde, 100 mL 10×PBS, 10 mL Methanol, 863 dH20 to 1 L) for 30 min followed by 3× washes with water and drying the plates for at least 24 h at room temperature. Subsequently plates were scanned on an Odyssey CLx Imaging system (FIG. 6).
(§5) Cells were seeded into 96-well ultra-low cluster plate (Costar, #7007) in 200 μL complete media and treated at day 2 with DMSO, Staurosporin, or BRD9 degrader, Compound 1, at indicated doses (FIG. 3C). Media and compounds were changed every 5 d and cell colonies were imaged at day 14.

[3] = test system: synovial sarcoma cell lines (SYO1, HS-SY-II, and ASKA); experiment: Crystal violet cell growth, synovial sarcoma cell lines, Example 3; conditions: for inhibition of the growth of the cells: SYO1, HS-SY-II, ASKA, treated daily, stained by day 14
Protocol: as §1

SYO1 cells [4] = experiment: Cell cycle analysis (Click-iT Plus EdU flow cytometry); conditions: 200 nM or 1 μM, 8 or 13 days, compared to DMSO and lenalidomide
Protocol: (§6) Procedure: SYO1 cells were treated for 8 or 13 days with DMSO, a BRD9 degrader (Compound 1) at 200 nM or 1 μM, or an E3 ligase binder (lenalidomide) at 200 nM. Compounds were refreshed every 5 days. Cell cycle analysis was performed using the Click-iT™ Plus EdU Flow Cytometry Assay (Invitrogen). The apoptosis assay was performed using the Annexin V-FITC Apoptosis Detection Kit (Sigma A9210). Assays were performed according to the manufacturer's protocol.

SYO1 cells [5] = experiment: Apoptosis assay (Annexin V-FITC); conditions: 200 nM or 1 μM, 8 days, compared to DMSO controls
Protocol: as §6

[6] = test system: non-synovial control cancer cell lines (293T, A549, G401); experiment: Cell growth (confluency, crystal violet, colony imaging), non-synovial control lines, Example 2; conditions: 1 μM or indicated concentrations
Protocol: as §2, §3, §4, §5

[7] = target: T1, Nanoluciferase-BRD9 fusion protein (3×FLAG-NLuc-BRD9) (Homo sapiens, UniProt Q9H8M2); experiment: SYO1 BRD9 NanoLuc degradation assay; conditions: SYO-1 cells expressing 3×FLAG-NLuc-BRD9, 6 hours, top dose 1 μM; read-out: SYO1 BRD9-NanoLuc degradation IC50
T1 construct: expressed in transfected cells
T1 sequence (Q9H8M2 1-597): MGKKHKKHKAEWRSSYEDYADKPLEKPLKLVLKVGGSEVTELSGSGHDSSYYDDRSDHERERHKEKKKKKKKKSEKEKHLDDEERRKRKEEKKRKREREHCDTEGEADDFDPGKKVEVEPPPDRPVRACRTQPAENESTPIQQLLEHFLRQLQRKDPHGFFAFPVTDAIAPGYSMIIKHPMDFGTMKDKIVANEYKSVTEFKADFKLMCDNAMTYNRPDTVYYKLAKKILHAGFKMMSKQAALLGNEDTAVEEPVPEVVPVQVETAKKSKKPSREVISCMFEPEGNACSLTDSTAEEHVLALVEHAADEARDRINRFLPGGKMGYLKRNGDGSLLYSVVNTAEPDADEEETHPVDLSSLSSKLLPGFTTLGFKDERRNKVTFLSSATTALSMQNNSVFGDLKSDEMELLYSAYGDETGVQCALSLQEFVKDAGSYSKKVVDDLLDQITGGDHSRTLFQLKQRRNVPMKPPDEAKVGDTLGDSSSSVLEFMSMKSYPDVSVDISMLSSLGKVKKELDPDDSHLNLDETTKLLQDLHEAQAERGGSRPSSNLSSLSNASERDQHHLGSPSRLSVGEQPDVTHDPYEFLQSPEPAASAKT
Protocol: Procedure: A stable SYO-1 cell line expressing 3×FLAG-NLuc-BRD9 was generated. On day 0 cells were seeded in 30 μL media into each well of 384-well cell culture plates. The seeding density was 8000 cells/well. On day 1, cells were treated with 30 nL DMSO or 30 nL of 3-fold serially DMSO-diluted compounds (10 points in duplicates with 1 μM as final top dose). Subsequently plates were incubated for 6 hours in a standard tissue culture incubator and equilibrated at room temperature for 15 minutes. Nanoluciferase activity was measured by adding 15 μL of freshly prepared Nano-Glo Luciferase Assay Reagent (Promega N1130), shaking the plates for 10 minutes and reading the bioluminescence using an EnVision reader.
Results: The Inhibition % was calculated using the following formula: % Inhibition=100×(LumHC−LumSample)/(LumHC−LumLC). DMSO treated cells are employed as High Control (HC) and 1 μM of a known BRD9 degrader standard treated cells are employed as Low Control (LC).

Compound	DC50 [7] [nM]	inhibition of the growth of the cells [1]	inhibition of the growth of the cells [2]	inhibition of the growth of the cells [3]	growth inhibition compared with the other treatments ([3]; all synovial cell lines, vs Compound 2 and lenalidomide)	numbers of cells in the S-phase of the cell cycle (SYO1 cells [4])	numbers of early- and late-apoptotic cells (SYO1 cells [5])	inhibition of the growth of the cells [6]
COc1cc(-c2cn(C)c(=O)c3cnccc23)cc(OC)c1CN(C)CC(=O)NCCOCCOCCNc1cccc2c1C(=O)N(C1CCC(=O)NC1=O)C2=O (centres unmarked) [Compound 1, dBRD9]		did not result in inhibition of the growth	results in inhibition of the growth of the cells	resulted in inhibition of the growth of the cells	most significant growth inhibition in all synovial cell lines	reduced numbers of cells in the S-phase of the cell cycle	increased numbers of early- and late-apoptotic cells	does not result in inhibition of the growth
COc1cc(-c2cn(C)c(=O)c3cnccc23)cc(OC)c1CN(C)C [Compound 2, BI-7273]		did not result in inhibition of the growth	results in inhibition of the growth of the cells	resulted in inhibition of the growth of the cells				does not result in inhibition of the growth

Further lines, with some results ahead:

DC50 [7] [nM]	Compound	inhibition of the growth of the cells [1]	inhibition of the growth of the cells [2]	inhibition of the growth of the cells [3]	growth inhibition compared with the other treatments ([3]; all synovial cell lines, vs Compound 2 and lenalidomide)	numbers of cells in the S-phase of the cell cycle (SYO1 cells [4])	numbers of early- and late-apoptotic cells (SYO1 cells [5])	inhibition of the growth of the cells [6]
< 10	COc1cc(C2=CN(C)C(=O)N(C)C2)cc(OC)c1CN1CCC(CCN2CCN(c3ccc4c(c3)C(=O)N(C3CCC(=O)NC3=O)C4)CC2)CC1 (centres unmarked) [Compound D1, 3-(6-[4-[2-(1-[[4-(1,3-dimethyl-2-oxo-4H-pyrimidin-5-yl)-2,6-dimethoxyphenyl]methyl]piperidin-4-yl)ethyl]piperazin-1-yl]-1-oxo-3H-isoindol-2-yl)piperidine-2,6-dione]							
< 10	COc1cc(C2=CN(C)C(=O)N(C)C2)cc(OC)c1CN1CCC(CCN2CCN(c3ccc4c(c3)CN(C3CCC(=O)NC3=O)C4=O)CC2)CC1 (centres unmarked) [Compound D2, 3-(5-[4-[2-(1-[[4-(1,3-dimethyl-2-oxo-4H-pyrimidin-5-yl)-2,6-dimethoxyphenyl]methyl]piperidin-4-yl)ethyl]piperazin-1-yl]-1-oxo-3H-isoindol-2-yl)piperidine-2,6-dione]							
< 10	COc1cc(C2=CN(C)C(=O)N(C)C2)cc(OC)c1CN1CCN(CCC2CCN(c3ccc4c(c3)CN(C3CCC(=O)NC3=O)C4=O)CC2)CC1 (centres unmarked) [Compound D3, 3-(5-[4-[2-(4-[[4-(1,3-dimethyl-2-oxo-4H-pyrimidin-5-yl)-2,6-dimethoxyphenyl]methyl]piperazin-1-yl)ethyl]piperidin-1-yl]-1-oxo-3H-isoindol-2-yl)piperidine-2,6-dione Formic Acid]							

From patent US12590079B2, “Compounds and uses thereof” (FOGHORN THERAPEUTICS INC., priority 2019, dated 2026)
